Publication PMC12706802, “Ortho-Hydroxyanilides: Slow-Acting, Selective Histone Deacetylase 1/2 Inhibitors Suitable for Photocaging Applications” (ACS Pharmacology & Translational Science, 2025)
Read-outs that look alike come from different tables or passages of the source. Each block holds one compound with its values, some of them ahead of it.

What was measured:
[1] = test system: MV-3 cells; assay: MTT cell viability (antiproliferative) assay; type: cell-based, human; details: Homo sapiens, read-out: MV-3 EC50 (MTT)
Experimental: (§1) To evaluate the cytotoxicity of the selected HDAC inhibitors, compounds were tested for their antiproliferative activity against MV-3 and MDA-MB-231 cells using the MTT assay. […] MTT (3-(4,5-dimethylthiazol-2-yl)-2,5-diphenyltetrazolium bromide; Catalog# A2231; BioChemica, Applichem GmbH, Darmstadt, Germany) was utilized to measure the antiproliferative effect. Depending on the incubation time, 3000 MV-3 cells (72 h), 2000 MV-3 cells (96 h) or 1000 MV-3 cells (120 h) per well were seeded in 96-well plates (Starlab GmbH, Hamburg, Germany) with each well containing 199 μL of volume. […] Next, predilutions of the test compounds were prepared in DMSO. […] Subsequently, cells were treated with 1.0 μL of the dilution series of the test compounds. […] After removing the supernatant, formazan was solubilized in 200.0 μL DMSO. The absorbance was measured at 570 nm with background subtraction at 690 nm using a Multiskan microplate photometer (Thermo Fisher Scientific, Waltham, MA, USA). The obtained data were normalized to PBS, considering 100% viability.

[2] = test system: HDAC6; parameters: method as in earlier work; details: Figure 1; ref 'Data taken from refs' (numbers not given); cited from earlier work
[3] = test system: MDA-MB-231 cells; assay: MTT cell viability (antiproliferative) assay; type: cell-based; details: Homo sapiens, MDA-MB-231, light or radiation study
Experimental: as §1

[4] = HPLC photolysis experiments (release of ST13 from ST17); type: physicochemical; details: 10 min
Experimental: The deprotection of ST17 and its effective conversion (82%) to its parent HDAC inhibitor ST13 upon irradiation (10 min; λ = 365 nm) was confirmed by high-performance liquid chromatography (HPLC) experiments (see Figure S3, Supporting Information). Next, ST17 was tested for its inhibitory activity against HDAC1, HDAC2, HDAC3, and HDAC6 with and without irradiation at 365 nm (see Table ).
For the deprotection experiments, 10 μL of a 1 mM ST17 solution in DMSO were irradiated for 10 min. Subsequently, samples were diluted with acetonitrile to a final concentration of 100 μM and analyzed via HPLC/UV (λquant = 250 nm) using the area under the curve (area [mAU × min]) for quantification. The amount of ST13 released from the photocager ST17 was quantified using a calibration curve of ST13 (see Figure S2).

[5] = test system: HDACs in MV-3 cells; assay: HDAC whole cell inhibition assay; details: for EC50: Homo sapiens, MV-3, light or radiation study, read-out: whole-cell HDAC inhibition EC50, MV-3
Experimental: (§2) Furthermore, we determined the EC50 values in the nontumorigenic cell line HEK293 and in the hematological cancer cell line MM.1S.
(§3) For this purpose, 3-fold serial dilutions of test compounds (DMSO) were prepared and added at a volume of 0.5 μL to the cells. […] MAL was used in a final concentration of 0.3 mM in the respective cell culture medium with 0.5% IGEPAL CA-630 (Catalog# J61055, Alfa Aesar). […] The obtained data were normalized to vehicle treated cells, considering 100% enzyme activity. IC50 values were determined by generating dose–response curves using the four-parameter logistic equation (GraphPad Prism 8.0, San Diego, USA).

[6] = test system: HDACs in MDA-MB-231 cells; assay: HDAC whole cell inhibition assay; details: for EC50: Homo sapiens, MDA-MB-231, light or radiation study, read-out: whole-cell HDAC inhibition EC50, MDA-MB-231
Experimental: as §2, §3

[7] = target: HDAC1 (Homo sapiens, UniProt Q13547); assay: Fluorescence-based biochemical HDAC enzyme inhibition assay (ZMAL substrate)
Experimental: (§4) First, the inhibitory activity and isoform selectivity of compounds and controls (see Figure ) was evaluated in a fluorescence-based biochemical HDAC inhibition assay against recombinant HDAC1, HDAC2, HDAC3, and HDAC6. […] First, 3-fold serial dilutions of test compounds were prepared in DMSO. […] IC50 values were determined by generating normalized dose–response curves using the three-parameter logistic equation (GraphPad Prism 8.0, San Diego, USA).

[8] = target: HDAC2 (Homo sapiens, UniProt Q92769); assay: as above
Experimental: as §4

[9] = target: human recombinant HDAC3 (Homo sapiens, UniProt O15379); assay: as above
Experimental: as §4

[10] = target: T1, human recombinant HDAC6 (Homo sapiens, UniProt Q9UBN7); assay: as above
T1 sequence (Q9UBN7 1-1215): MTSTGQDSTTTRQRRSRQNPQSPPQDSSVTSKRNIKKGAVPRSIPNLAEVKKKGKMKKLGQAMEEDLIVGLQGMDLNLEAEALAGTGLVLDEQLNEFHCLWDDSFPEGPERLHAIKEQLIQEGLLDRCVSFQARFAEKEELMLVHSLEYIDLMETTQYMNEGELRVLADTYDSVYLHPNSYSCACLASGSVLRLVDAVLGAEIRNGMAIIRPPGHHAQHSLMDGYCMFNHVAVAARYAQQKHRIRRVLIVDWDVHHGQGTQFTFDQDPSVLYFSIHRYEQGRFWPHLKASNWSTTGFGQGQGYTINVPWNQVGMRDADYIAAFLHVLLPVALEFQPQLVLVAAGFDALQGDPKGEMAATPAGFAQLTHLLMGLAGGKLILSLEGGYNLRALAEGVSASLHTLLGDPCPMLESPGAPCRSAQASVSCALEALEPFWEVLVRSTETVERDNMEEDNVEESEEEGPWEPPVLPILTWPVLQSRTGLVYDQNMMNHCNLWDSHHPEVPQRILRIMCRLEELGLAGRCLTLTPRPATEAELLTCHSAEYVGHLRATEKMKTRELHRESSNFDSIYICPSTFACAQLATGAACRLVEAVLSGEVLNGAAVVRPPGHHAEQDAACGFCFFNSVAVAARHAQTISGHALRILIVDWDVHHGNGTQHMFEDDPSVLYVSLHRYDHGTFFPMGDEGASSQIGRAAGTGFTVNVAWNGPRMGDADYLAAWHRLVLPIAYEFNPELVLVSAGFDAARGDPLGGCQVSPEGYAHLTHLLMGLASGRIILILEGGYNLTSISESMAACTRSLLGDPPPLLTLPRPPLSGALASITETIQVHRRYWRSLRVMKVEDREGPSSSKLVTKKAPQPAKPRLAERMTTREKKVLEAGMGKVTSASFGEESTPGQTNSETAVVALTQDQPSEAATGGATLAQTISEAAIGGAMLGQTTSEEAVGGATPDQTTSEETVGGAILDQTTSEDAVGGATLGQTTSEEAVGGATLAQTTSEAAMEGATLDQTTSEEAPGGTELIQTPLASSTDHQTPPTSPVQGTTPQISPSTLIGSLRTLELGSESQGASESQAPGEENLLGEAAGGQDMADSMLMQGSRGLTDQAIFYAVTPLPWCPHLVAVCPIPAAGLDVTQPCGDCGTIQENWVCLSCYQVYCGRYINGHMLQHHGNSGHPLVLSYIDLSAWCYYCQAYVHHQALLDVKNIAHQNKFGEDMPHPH
Experimental: as §4

[11] = HDAC1 IC50, preincubation of enzyme and inhibitor 1 h at RT, no irradiation
[12] = HDAC2 IC50, preincubation of enzyme and inhibitor 1 h at RT, no irradiation

Chain of HDAC1 (Q13547 whole entry): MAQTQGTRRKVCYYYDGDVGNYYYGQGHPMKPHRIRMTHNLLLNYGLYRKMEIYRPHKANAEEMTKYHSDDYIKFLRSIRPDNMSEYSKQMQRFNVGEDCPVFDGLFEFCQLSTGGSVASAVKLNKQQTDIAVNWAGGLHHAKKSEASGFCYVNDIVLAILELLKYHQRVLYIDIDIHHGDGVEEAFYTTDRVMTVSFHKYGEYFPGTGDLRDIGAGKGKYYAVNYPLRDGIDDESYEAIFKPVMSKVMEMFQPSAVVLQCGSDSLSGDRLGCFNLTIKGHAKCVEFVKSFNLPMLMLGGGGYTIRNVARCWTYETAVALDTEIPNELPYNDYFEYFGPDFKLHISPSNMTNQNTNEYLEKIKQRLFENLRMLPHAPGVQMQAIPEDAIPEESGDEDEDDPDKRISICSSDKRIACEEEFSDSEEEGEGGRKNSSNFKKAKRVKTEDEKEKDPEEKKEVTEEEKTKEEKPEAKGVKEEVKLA
Chain of HDAC2 (Q92769 whole entry): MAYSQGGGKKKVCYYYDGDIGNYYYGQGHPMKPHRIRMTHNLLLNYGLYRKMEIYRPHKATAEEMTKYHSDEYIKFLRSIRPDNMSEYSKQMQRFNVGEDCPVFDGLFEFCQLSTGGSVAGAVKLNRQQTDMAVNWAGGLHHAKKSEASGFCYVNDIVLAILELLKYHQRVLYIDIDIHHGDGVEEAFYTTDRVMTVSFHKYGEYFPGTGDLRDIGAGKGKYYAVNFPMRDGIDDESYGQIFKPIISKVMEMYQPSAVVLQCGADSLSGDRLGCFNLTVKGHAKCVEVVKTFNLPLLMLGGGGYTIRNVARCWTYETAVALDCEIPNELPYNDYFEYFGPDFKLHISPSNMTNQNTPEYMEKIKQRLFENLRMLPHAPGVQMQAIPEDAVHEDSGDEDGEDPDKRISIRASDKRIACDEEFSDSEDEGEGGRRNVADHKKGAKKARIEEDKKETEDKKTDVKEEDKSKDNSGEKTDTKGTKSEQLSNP
Chain of human recombinant HDAC3 (O15379 whole entry): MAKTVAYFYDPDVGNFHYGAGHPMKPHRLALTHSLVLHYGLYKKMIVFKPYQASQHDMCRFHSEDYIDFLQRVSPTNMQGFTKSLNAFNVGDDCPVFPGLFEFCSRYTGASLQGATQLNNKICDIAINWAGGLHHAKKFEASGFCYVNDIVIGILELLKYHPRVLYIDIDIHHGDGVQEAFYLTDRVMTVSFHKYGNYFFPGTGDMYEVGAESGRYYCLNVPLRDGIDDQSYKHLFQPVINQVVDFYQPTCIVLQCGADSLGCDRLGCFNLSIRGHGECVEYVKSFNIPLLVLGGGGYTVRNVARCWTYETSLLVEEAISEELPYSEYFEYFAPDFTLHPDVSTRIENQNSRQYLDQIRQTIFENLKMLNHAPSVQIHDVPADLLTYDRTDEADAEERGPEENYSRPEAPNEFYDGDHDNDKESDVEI
Chain of human recombinant HDAC3 (Q9Y618 395-489 partner limits assumed): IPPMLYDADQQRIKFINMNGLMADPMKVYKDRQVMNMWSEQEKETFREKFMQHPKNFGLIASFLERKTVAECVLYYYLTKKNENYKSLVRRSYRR

Structure (SMILES): O=C(CCCCCCC(=O)Nc1ccccc1)NO [vorinostat, reference compound]
EC50 ([1]; MV-3, 72 h): 1.88 ± 0.73 µM

Structure (SMILES): CCCNNC(=O)c1ccc(CN(CC(=O)NCc2ccccc2)C(=O)c2ccc(N(C)C)cc2)cc1 [compound 5]
IC50 [2]: 10 µM

EC50 ([3]; incubation time 120 h, no irradiation): 11.2 ± 1.7 µM
EC50 ([3]; with UV irradiation (10 min, 365 nm) of ST17, 120 h): 6.78 ± 0.58 µM
conversion to parent HDAC inhibitor ST13 upon irradiation (HPLC) ([4]; λ = 365 nm, in DMSO, room temperature): 82%
concentration of released ST13 following irradiation (HPLC) ([4]; initial ST17 concentration 100 µM, 365 nm): 81.67 µM
EC50 ([5]; 18 h): 5.98 ± 1.24 µM
EC50 [5]: 0.392 ± 0.07 µM
EC50 ([6]; 18 h): 3.55 ± 2 µM
EC50 [6]: 0.783 ± 0.139 µM
IC50 [7, 11]: 0.84 ± 0.308 µM
IC50 ([7]; HDAC1 IC50, with UV irradiation (10 min, 365 nm) of ST17, preincubation 1 h at RT): 0.04 ± 0.008 µM
IC50 [8, 12]: 1.71 ± 0.83 µM
IC50 ([8]; HDAC2 IC50, with UV irradiation (10 min, 365 nm) of ST17, preincubation 1 h at RT): 0.072 ± 0.012 µM
IC50 ([9]; HDAC3 IC50, preincubation of enzyme and inhibitor 1 h at RT, no irradiation): > 10 µM
IC50 ([9]; HDAC3 IC50, with UV irradiation (10 min, 365 nm) of ST17, preincubation 1 h at RT): 8.58 ± 0.76 µM
IC50 [10]: > 10 µM
IC50 ([10]; read-out: HDAC6 IC50, with UV irradiation (10 min, 365 nm) of ST17, preincubation 15 min at RT): > 10 µM
Structure (SMILES): COc1cc(COc2ccc(-c3ccccc3)cc2NC(=O)c2ccc(NC(C)=O)cc2)c([N+](=O)[O-])cc1OC [ST17, 4-Acetamido-N-(4-((4,5-dimethoxy-2-nitrobenzyl)-oxy)-[1,1′-biphenyl]-3-yl)-benzamide]
EC50 ([1]; MV-3, light or radiation study, incubation time 120 h, no irradiation): 16.2 ± 4.1 µM
EC50 ([1]; MV-3, light or radiation study, with UV irradiation (10 min, 365 nm) of ST17, 120 h): 4.64 ± 0.93 µM
increase of activity by light-induced activation compared to untreated ST17, MV-3 ([5]; whole cell HDAC assay): 15 fold
increase of activity by light-induced activation compared to untreated ST17, MDA-MB-231 ([6]; whole cell HDAC assay): 4.5 fold

IC50 [7, 11]: > 10 µM
IC50 [8, 12]: > 10 µM
Structure (SMILES): CC(=O)Nc1ccc(C(=O)Nc2ccccc2O)cc1 [ST01, 4-Acetamido-N-(2-hydroxyphenyl)-benzamide]
